Columns and labels:
gapA = test: Shigella gene expression qRT-PCR, internal control gapA; format: cell-based, S. flexneri; details: for Average ΔΔCt / Ct / RQ (2^−ΔΔCt) / ΔΔCt^2 (normalized to rrsA): gapA, example data
Description: (§1) Real-time quantitative reverse transcription PCR (qRT-PCR) was performed to test the effects of SE-1 on the expression of the VirF regulated genes virB, icsA, icsB and ipaB. The gapA and rrsA transcripts were used as internal controls. These are constitutively expressed Shigella genes commonly used to normalize mRNA levels. S. flexneri strain SME4331, which carries a null mutation in ipgD (ipgD), was grown at 30° C. overnight in TSB with ampicillin, diluted into the same medium to an OD600 of ˜0.1, and 1 ml aliquots further grown at 30° C. (DMSO only) or at 37° C. (SE-1 at 20 or 40 μM, or DMSO only, all 0.3% DMSO). Cells were grown to an OD600 of 1.0 (˜2.5 h) and RNA was isolated using an RNeasy MiniElute Cleanup Kit (Qiagen, Germantown, Md.), with DNA contamination eliminated using a Turbo DNase Kit (Ambion, Austin, Tex.). Complementary DNA (cDNA) was synthesized by random priming using a cDNA Reverse Transcription Kit (Applied Biosystems, Foster City, Calif.). Primers were tested for PCR specificity using genomic DNA template to ensure a single amplicon of the expected size for each primer pair, and validated using 5-fold dilutions of cDNA (2000 to 0.0256 ng) to ensure a linear plot of cycle threshold (Ct) versus cDNA concentration. Validated primer sets were used to test mRNA profiles in reactions that contained 10 ng of cDNA, 10 μl of SYBR green master mix (Applied Biosystems), specific primers (0.5 μM each) and water to a final volume of 20 μl, using a Step One Plus Real-Time PCR System (Applied Biosystems). The data was analyzed using the 2^−ΔΔCt method, and also by Applied Biosystems real-time analysis software. […] In brief, ΔΔCt values [ΔΔCt=(Ct,Target−Ct,Internal Control)SE-1−(Ct,Target−Ct,Internal Control)no SE-1] were separately obtained for each sample relative to two internal controls, gapA and rrsA. The ΔΔCt values relative to the two internal controls for each sample were averaged and then used to calculate the relative expression levels (2^−ΔΔCt). As a control, we also normalized each internal control to the other internal control. Control reactions used templates generated without reverse transcriptase to ensure low genomic DNA contamination. To ensure that products were not likely to be due to primer dimer artifacts, additional control samples were performed in which reaction mixtures contained primers alone (no template).

rrsA = test: Shigella gene expression qRT-PCR, internal control rrsA; format: cell-based, S. flexneri; details: for Average ΔΔCt / Ct / RQ (2^−ΔΔCt) / ΔΔCt^1 (normalized to gapA): rrsA, example data
Description: as §1

Shigella = Shigella growth; format: cell-based, S. flexneri
L-929 cells = test: AlamarBlue metabolic activity / viability assay; format: cell-based, mouse
Description: AlamarBlue® assays were performed as a control to test whether SE-1 had any impact on the metabolic activity of the host cells, as follows: L-929 cells were seeded into 96-well plates and grown overnight to ˜90% confluency. SE-1 was serially diluted in RPMI supplemented with 10 μg/ml gentamycin and 5% FBS, added to the wells, and incubated at 37° C. for 3 h. Cells were washed with 200 μl Hank's buffered salt solution (Mediatech) and incubated with 200 μl RPMI (without phenol red) containing 10% AlamarBlue® (also known as Resazurin, Invitrogen, Grand Island, N.Y.). Following 8 h incubation at 37° C., the absorbance was measured at 570 nm and 600 nm using a PowerWave XS plate reader, and the metabolic activity of the cells (as a percentage of untreated controls) was calculated using the following formula provided by the manufacturer: (117,216×A570−80,586×A600)/(117,216×A′570−80,586×A′600)×100, where A is the absorbance of test wells, and A′ is the absorbance of positive control wells (mock-infection).

CCCCN1C=C(c2ccc3ccccc3n2)C(C[N+](=O)[O-])c2ccccc21 (centres unmarked) [Compound 1, 1-butyl-4-(nitromethyl)-3-quinolin-2-yl-4H-quinoline]
expression of control gene gapA (gapA; 40 μM SE-1, normalized to rrsA): no decrease | Average ΔΔCt (gapA; SE-1 20 μM): 1 | Ct (gapA; SE-1 20 μM): 27.33 | RQ (2^−ΔΔCt) (gapA; SE-1 20 μM): 0.5 | ΔΔCt^2 (normalized to rrsA) (gapA; SE-1 20 μM): 1 | Average ΔΔCt (gapA; SE-1 40 μM): −0.69 | Ct (gapA; SE-1 40 μM): 26.76 | RQ (2^−ΔΔCt) (gapA; SE-1 40 μM): 0.62 | ΔΔCt^2 (normalized to rrsA) (gapA; SE-1 40 μM): −0.69 | expression of control gene rrsA (rrsA; 40 μM SE-1, normalized to gapA): no decrease | Average ΔΔCt (rrsA; SE-1 20 μM): −1.0 | Ct (rrsA; SE-1 20 μM): 18.55 | RQ (2^−ΔΔCt) (rrsA; SE-1 20 μM): 2 | ΔΔCt^1 (normalized to gapA) (rrsA; SE-1 20 μM): −1.0 | Average ΔΔCt (rrsA; SE-1 40 μM): 0.69 | Ct (rrsA; SE-1 40 μM): 18.29 | RQ (2^−ΔΔCt) (rrsA; SE-1 40 μM): 1.62 | ΔΔCt^1 (normalized to gapA) (rrsA; SE-1 40 μM): 0.69 | growth of S. flexneri samples (Shigella; 80 μM SE-1, virB-lacZ strain): exhibited growth defects | decrease in the Shigella growth rate (Shigella; concentrations up to 40 μM, SME4331): no detectable decrease | Shigella growth rate (Shigella; strain M90T, invasion study with human epithelial cells): not the Shigella growth rate | host cell viability (L-929 cells; 40 μM SE-1): no effect | viability of L-929 cells (L-929 cells; 0.2 and 0.4 μM SE-1): did not detectably decrease the viability
